Measurements from US9670462B2, “Bioactive surface for hepatocyte-based applications” (priority 2006, dated 2017).

Tested on: hepatocytes

Row | Structure (SMILES) | morphological changes of 3D spheroids, pre-spheroid monolayer or 2D hepatocyte monolayer | effect on hepatocyte monolayer maintained on PET-Hybrid (soluble peptide 100 μM in culture medium) | toxicity to the hepatocytes (soluble peptide, treatment for 24 h)
1 | NCCCCCCOC1O[C@H](CO)[C@H](O)[C@H](O)[C@H]1O (stereo partly drawn) [galactose ligands, 1-O-(6′-aminohexyl)-D-galactopyranoside] | did not induce any morphological changes | – | –
2 | N=C(N)NCCC[C@H](NC(=O)CN)C(=O)NCC(=O)N[C@@H](CC(=O)O)C(=O)N[C@@H](CO)C(=O)O [GRGDS] | – | destabilized the hepatocyte monolayer | slight toxicity
